Consider three compounds from US11098040B2, “Compounds and methods of use” (Ferro Therapeutics, Inc., priority 2018, dated 2021).

Read-outs that look alike come from different tables or passages of the source.

Series [1] concerns 786-O. In words: Cell proliferation (Alamar Blue) assay, 786-O renal cell carcinoma, with/without ferrostatin. The format is cell-based. As to conditions: Homo sapiens. Summed up:
(§1)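 Cells seeded at 5000/well, 16-24 h, then exposed 24 h at 37° C to compound, 10-0.0005 μM in 3-fold dilutions, 1% DMSO final. Alamar Blue fluorescence (ex 540/em 590 nm) read after 1.5 h; IC50 from variable-slope sigmoidal fit.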
On the technique in general: Resazurin is reduced to fluorescent resorufin, in cell work by metabolically active cells.

The subject of series [2] is A431. The experiment in a line: Cell proliferation (Alamar Blue) assay, A431. The class given is cell-based. As to conditions: Homo sapiens, A-431; Cell Line A431. On the procedure: Cells (SJSA-1, 786-O and A431) were seeded (5000 cells/100 μL/well) in 96-well tissue culture plate and incubated at 37° C./5% CO2 for 16-24 hours. The cells were then treated with compounds (25 μL of 5×). The compound concentrations were 10-0.0005 μM prepared in 3-fold serial dilutions with final DMSO concentration of 1%. The plates were then incubated for 24 h at 37° C./5% CO2 in a moist environment. Then Alamar Blue™ reagent (final concentration 1×-12.5 μL) was added to each well and incubated for 1.5 hours at 37° C./5% CO2. The plates were read on fluorescence reader at 540 nm excitation and 590 nm emission wavelengths. The IC50 values were subsequently determined using a sigmoidal dose-response curve (variable slope) in GraphPad Prism® 5 software.
The cell proliferation assays for the compounds shown Table 25 was performed according to the protocols described herein, including Examples 4 and 6.

A short description of series [3]: PK profile, IV plasma concentration and PK parameters. The format is in vivo. The settings on record: Balb/C nude, mouse, iv, 5 mg/kg, 30% Kolliphore EL with 1% poloxamar 407 in water; for AUC(0-t): read-out: AUC0-t; for AUC(0-inf): read-out: AUC0-∞. On the procedure: The PK profiles of compounds 148, 149, 150, 156 and 169 are shown below. Compound 156 was formulated in 30% Kolliphor EL (Cremophor EL) in water and compounds 148, 149, 150 and 169 were formulated in 30% Kolliphore EL with 1% poloxamar 407 in water. All compounds were dosed at 5 mg/kg. Blood samples were collected at various time points and analyzed using the method described above.

In series [4] the test system is SJSA-1. The experiment in a line: Cell proliferation (Alamar Blue) assay, SJSA-1 osteosarcoma, with/without ferrostatin. The class given is cell-based, human. As to conditions: Homo sapiens. A digest of the protocol:
as §1

Where [5] appears, read: 786-0, Cell Line 786-O, read-out: IC50.
Where [6] appears, read: SJSA-1, Cell Line SJSA-1, read-out: IC50.

As a reminder, the IC50 is the concentration needed to halve the response being measured. For orientation: Cmax means the peak of the concentration-time curve. A word on the clearance: it is a measure of how efficiently the substance is removed, as volume per time. In general, half-life refers to the time needed for the level to fall by half in the phase considered. Lower therefore signals fast loss. On to `CCCC[C@H]1Cc2c([nH]c3ccccc23)[C@H](c2ccc(S(=O)(=O)NC3CC3)cc2F)N1C(=O)CCl` [Compound 169, 4-((1S,3S)-3-butyl-2-(2-chloroacetyl)-2,3,4,9-tetrahydro-1H-pyrido[3,4-b]indol-1-yl)-N-cyclopropyl-3-fluorobenzenesulfonamide], for which the IC50 in series [1] (786-0, 24 h, Alamar Blue, 24 h, 2 μM ferrostatin, read-out: 786-O (IC50, μM) 2 μM Ferrostatin) is 4.96 µM; in series [1] (786-0, 24 h, Alamar Blue, 24 h, without ferrostatin, read-out: 786-O (IC50, μM) Without Ferrostatin), 0.003 µM; in series [1] (setting [5]) it was 0.003 µM; in series [2], 3900 nM; in series [4] (SJSA-1, 24 h, Alamar Blue, 24 h, 2 μM ferrostatin, read-out: SJSA-1 (IC50, μM) 2 μM Ferrostatin) it was above 10 µM; in series [4] (SJSA-1, 24 h, Alamar Blue, 24 h, without ferrostatin, read-out: SJSA-1 (IC50, μM) Without Ferrostatin), 0.001 µM. The IC50 in series [4] (setting [6]) was 0.001 µM. The C0 in series [3] came out at 5380 ng/mL. Further, the Cmax in series [3] was determined as 2220 ng/mL. In addition, in series [3], the clearance turned out to be 109 mL/min/kg. Also, in series [3], the AUC(0-t) was 760 ng·h/mL. The AUC(0-inf) in series [3] was found to be 762 ng·h/mL. For the same compound, the Vd stood at 2.39 L/kg in series [3] (read-out: Vd) and 0.98 L/kg in series [3] (read-out: Vss). For the same compound, in series [3] (time points considered 0.25-2 h (1 h excluded)), the half-life was 0.25 h.

For the compound `C#CC(=O)N1[C@@H](CCCC)Cc2c([nH]c3ccccc23)[C@@H]1c1ccc(NC23CC4CC(CC(C4)C2)C3)cc1` [Compound 148, 1-((1 S,3S)-1-(4-(((3R,5R,7R)-adamantan-1-yl)amino)phenyl)-3-butyl-1,3,4,9-tetrahydro-2H-pyrido[3,4-b]indol-2-yl)prop-2-yn-1-one], in series [1] (setting [5]), the IC50 worked out at 0.006 µM. In series [2], it took 3600 nM to reach half-maximal inhibition (IC50). Besides, in series [3], the C0 turned out to be 40600 ng/mL, the Cmax was found to be 33000 ng/mL, the clearance was 4.79 mL/min/kg and the AUC(0-t) was 17200 ng·h/mL. Also, in series [3], the AUC(0-inf) came out at 17400 ng·h/mL. Also, the Vd in series [3] (read-out: Vd) stood at 2.39 L/kg. For the same compound, the Vd in series [3] (read-out: Vss) came out at 0.47 L/kg. In addition, in series [3] (time points considered 4-24 h), the half-life is 5.76 h. Besides, the IC50 in series [4] (setting [6]) is 0.008 µM.

Turning to `CCCC[C@H]1Cc2c([nH]c3ccccc23)[C@H](c2ccc(NC34CC5CC(CC(C5)C3)C4)cc2)N1C(=O)CCl` [Compound 149, 1-((1S,3S)-1-(4-(((3R,5R,7R)-adamantan-1-yl)amino)phenyl)-3-butyl-1,3,4,9-tetrahydro-2H-pyrido[3,4-b]indol-2-yl)-2-chloroethan-1-one], the IC50 in series [1] (setting [5]) was 0.001 µM. Besides, in series [2], the IC50 amounted to 3800 nM. In series [3], the C0 came to 29400 ng/mL, the Cmax turned out to be 22000 ng/mL, the clearance was 13 mL/min/kg and the AUC(0-t) came to 6540 ng·h/mL. Moreover, the AUC(0-inf) in series [3] stood at 6550 ng·h/mL. In series [3] (read-out: Vd), the Vd was determined as 2.34 L/kg. For the same compound, in series [3] (read-out: Vss), the Vd worked out at 0.53 L/kg. Further, the half-life in series [3] (time points considered 2-8 h) was 2.12 h. Moreover, the IC50 in series [4] (setting [6]) amounted to 0.002 µM.
